Residues, ends and D or L forms follow the SMILES beside them. *: point of attachment. MeOSuc = COC(=O)CCC(=O)*; CH2Cl = ClC*
Tests used:
Assay type in all cases: cell-based
[1] = test system: U937 cells; experiment: KCN (15 mM)-induced necrosis in U937 cells, LDH release assay, Humanin derivative with Elastase inhibitor III (Example 2); conditions: 7 hours
Method: (§1) The U937 cells are p53 minus monocytic cell line. The cells were grown at 37° C. in the presence of 5% CO2 in RPMI-1640 medium supplemented with 10% heat-inactivated fetal bovine serum (FCS), 2 Mm glutamine, 100 μg/ml penicillin, and 100 μg/ml streptomycin. The cells were split every third day.
(§2) U937 cells were cultured in complete RPMI-1640 medium, washed once and seeded at 4.5×10^5 cells/ml in glucose free medium 1 hour before treatment. Humanin or its derivatives of SEQ ID MOs 1-6 and Elastase inhibitor III (EI-III) and vehicle were added 30 minutes before the addition of KCN (15 mM). Following the treatment, the cells were incubated for 7 hours and cell death was measured via the LDH release assay.
(§3) The amount of LDH released from lysed cells is a sensitive measure of cell death. In this study, necrotic cell death was measured in 96-well plates using Promega's CytoTox 96 Non-Radioactive Cytotoxicity Assay kit, which accurately and rapidly measures cell death by quantitating the release of lactate dehydrogenase (LDH), a stable cytosolic enzyme from lysed cells.
(§4) At the end of each experiment, the cells were centrifuged at 240×g for 10 minutes at room temperature. Next, the supernatant was collected and 50 μL aliquots were taken for the LDH release assay. The LDH content from cells lysed in 0.1% Tryton X-100 for 10-15 minutes was used as a measure for total LDH content. The LDH released in the treatment (after subtracting the blank measure) was used for measuring necrotic cell death as a percentage from total LDH. A measurement of the absorbance value at 490 nm was preformed by ELISA READER, 30 minutes after the addition of the LDH reaction solution.

[2] = test system: U937 cells; experiment: KCN (5 mM)-induced necrosis in U937 cells, LDH release assay, Humanin derivative with Mimosine (Example 3); conditions: 7 hours
Method: as §1
as §2, with “Mimosine” for “Elastase inhibitor III (EI-III)”, “(5” for “(15”
as §3, §4

[3] = test system: U-937 cells; experiment: KCN-induced necrosis in U-937 cells, LDH release (Example 1); conditions: 10 μM peptide, LDH release after 7 hours (FIG. 1)
Method: FIGS. 1A-1B. […] LDH release was measured after 7 hours (see, FIG. 1A) % LDH release with the crude data; (see, FIG. 1B) The amount of LDH released of control cells was subtracted from all treatments, P*<0.02. […] The effects of HN and its derivatives on necrotic cell death induced by staurosporine/oligomicyn in PC12 cells are depicted in FIG. 4 (by LDH release) and FIG. 5 (ethydium bromide and acridine orange staining).

[4] = test system: PC12 cells; experiment: KCN-induced necrosis in PC12 cells, LDH release; conditions: LDH release after 5 hours (FIG. 2 and FIG. 3)
Method: FIGS. 2A-2B. […] LDH release was measured after 5 hours (see, FIG. 2A) % LDH release with the crude data; (see, FIG. 2B) The amount of LDH released from control cells was subtracted from all treatments, P*<0.05. FIG. 3. Is a bar graph showing the effect of different HN17 concentrations on KCN-induced necrosis in PC12 cells as assessed by the determination of LDH release. PC12 cells were treated with or without 7 mM KCN for 5 hours in the presence or absence of different concentrations of HN17 (1-30 μM), and then LDH release from the cells was determined, P*<0.04. […] The effects of HN and its derivatives on necrotic cell death induced by staurosporine/oligomicyn in PC12 cells are depicted in FIG. 4 (by LDH release) and FIG. 5 (ethydium bromide and acridine orange staining).

## COC(=O)CCC(=O)N[C@@H](C)C(=O)N[C@@H](C)C(=O)N1CCC[C@H]1C(=O)N[C@H](C(=O)CCl)C(C)C [EI-III, HLE Inhibitor MeOSuc-AAPV-CMK] (MeOSuc-AAPV-CH2Cl)
[1]; EI-III at 50 μM
  impact on necrotic cell death induced by KCN: no impact
[1]; EI-III at 100 μM
  inhibition of cell death by necrosis: 75%
[1]; EI-III at 300 μM
  inhibition of cell death by necrosis: 75%

## NC(Cn1ccc(=O)c(O)c1)C(=O)O (centres unmarked) [mimosine, Mimosine, reference compound]
[2]; mimosine at 30 μM
  inhibition of necrotic cell death: no inhibition
[2]; mimosine at 70 μM
  inhibition of necrotic cell death: no inhibition
[2]; mimosine at 300 μM
  inhibition of cell death by necrosis: 12%

## MAPAGASCLLLLTGEIDLPVKRRA [AGA-HNG, Humanin derivative]
[1]; AGA-HNG at 1 μM
  impact on necrotic cell death induced by KCN: no impact
[1]; AGA-HNG at 10 μM
  impact on necrotic cell death induced by KCN: no impact
[3]
  protection against KCN-induced necrotic cell death as measured by LDH release: conferred protection

## MAPRGFSCLLLLTGEIDLPVKRRA [HNG, Humanin derivative]
[2]; HNG at 1 μM
  inhibition of necrotic cell death: no inhibition
[2]; HNG at 10 μM
  inhibition of necrotic cell death: no inhibition
[2]; HNG at 301 μM
  inhibition of necrotic cell death: no inhibition

## PRGFSCLLLLTSEIDLP [HN17, Humanin derivative; the short name HN17 is also printed for AGA-C8R-HNG17]
[4]
  protection against KCN-induced necrotic cell death as measured by LDH release: confers protection
[3]
  protection against KCN-induced necrotic cell death as measured by LDH release: conferred protection

Reference: US20200009221A1, “METHODS FOR INHIBITING NECROSIS” (priority 2010, published 2020)
